From patent publication US10745401B2, “Condensed lactam derivative” (Sumitomo Dainippon Pharma Co., Ltd., priority 2018, dated 2020)
pEC50, pIC50, pKi: −log10 of the molar value.

How the values were obtained:
[1] = target: hERG channel (Homo sapiens (Human), UniProt Q12809); test: Test 6-1: inhibitory activity for hERG channel (auto patch clamp, Qpatch); format: cell-based; conditions: whole cell auto patch clamp, hERG-CHO cells; read-out: hERG inhibition IC50
Protocol: Test 6-1: Evaluation of Inhibitory Activity for hERG Channel
Inhibitory activity of the present compound for hERG channel was measured by whole cell patch clamp method with an auto patch clamp system using CHO cells in which hERG channel involved in human rapidly activating delayed rectifier potassium current (IKr) was forcibly expressed.
hERG-CHO cells purchased from ChanTest Cop. were cultured in a CO2 incubator at 37° C., and dissociated from a flask with trypsin shortly before the measurement of hERG current, to prepare a cell suspension.
Extracellular fluid: 2 mmol/L CaCl2, 1 mmol/L MgCl2, 10 mmol/L HEPES, 4 mmol/L KCl, 145 mmol/L NaCl, 10 mmol/L Glucose
Intracellular fluid: 5.4 mmol/L CaCl2, 1.8 mmol/L MgCl2, 10 mmol/L HEPES, 31 mmol/L KOH, 10 mmol/L EGTA, 120 mmol/L KCl, 4 mmol/L Na2-ATP
Test compound solution: Test compound was dissolved in DMSO to reach the concentration of 2 mmol/L or 20 mmol/L, in order to prepare a test compound solution. […] (Measurement of Current Value and Data Analysis)
The cell suspension, the extracellular fluid, the intracellular fluid, and the measurement plate were set in the auto patch clamp system, and hERG current was measured by whole cell patch clamp method. […] Each pulse interval was 15 seconds. The data analysis was carried out with Qpatch Assay Software (Biolin Scientific). The test was carried out by applying incrementally 4 concentrations of each test compound, and the average of the maximum peak tail currents which were obtained from the last 3 stimulations in each concentration was determined as the evaluated data. Based on the current inhibition rate for a pre-applied current at each concentration of each test compound, IC50 value was calculated by Hill equation with the software.

[2] = Test 4: metabolic stability test in human hepatic microsome; format: in vitro ADME; conditions: 0.1 mg/mL microsome, 0.1 μmol/L compound, 37° C., 30 minutes
Protocol: Test 4: Metabolic Stability Test in Human Hepatic Microsome
The stability of the present compound in human hepatic microsome metabolism was evaluated as mentioned below. Human hepatic microsome was obtained from Xenontech. Human hepatic microsome, NADPH, and each test compound were mixed in 25 mmol/L phosphate buffer solution (pH 7.4) to reach the following concentrations as shown below, and the mixture was incubated at 37° C. for 30 minutes. • Human hepatic microsome: 0.1 mg/mL • NAPDH: 3.2 mmol/L • Test compound: 0.1 μmol/L
The residual ratio of the test compound in each sample after 30 minutes was measured by LC-MS, and the metabolic stability in human hepatic microsome was calculated from the following formula. Metabolic stability in human hepatic microsome (mL/min/mg protein)=−LN (residual ratio)/30/0.1

[3] = target: human D2 receptor (Homo sapiens (Human), UniProt P14416); test: Test 1: binding activity for human D2 receptor ([3H]Spiperone, CHO cell membrane fraction); conditions: human D2 receptor, [3H]Spiperone
Protocol: (§1) Test 1: Evaluation of Binding Activity for Human 5-HT1A Receptor, Human 5-HT2A Receptor, and Human D2 Receptor
(§2) Binding affinity of the present compound for human 5-HT1A receptor, human 5-HT2A receptor, and human D2 receptor was measured by the following procedures.
(§3) Each mixture was incubated at room temperature for 60 minutes. Then, the mixture was added quickly on a glassfiber filter plate (Multiscreen FB, Millipore, Inc.) coated with 0.3% aqueous polyethylenimine, and vacuum-filtered. Radioactivity remaining on the filter was measured with a liquid scintillation counter (PerkinElmer, Inc.). Binding inhibition rate was calculated from the following formula.
(§4) Ki of each compound was calculated from the following formula. Binding inhibition constant (Ki)=IC50/(1+S/Kd) wherein S is concentration of ligand; Kd is a binding dissociation constant of ligand to membrane, which is calculated from a saturated binding experiment conducted with the same cell membrane. A small Ki value means strong binding ability to a receptor.

[4] = target: T1, human 5-HT1A receptor (Homo sapiens (Human), UniProt P08908); test: Test 1: binding activity for human 5-HT1A receptor ([3H]8-OH-DPAT, CHO cell membrane fraction)
Protocol: as §1, §2, §3
as §4, with “IC50 value was calculated by Hill analysis (Physiology, 1910, 40, 190-200). Ki of” for “Ki of”

[5] = target: T1, human 5-HT1A receptor; test: Test 2: agonist activity for human 5-HT1A receptor ([35S]GTPγS binding); format: biochemical; conditions: for pEC50: [35S]GTPγS binding, concentration at which half the activity of Emax was obtained; for Emax at 10 µM: agonist activity in the presence of 10 μM of compound, relative to 100 μmol/L 5-HT
Protocol: Test 2: Evaluation of Agonist Activity for Human 5-HT1A Receptor
CHO cell membrane fraction in which human 5-HT1A receptor was expressed as used in Test 1 was purchased. To a buffer containing guanosine diphosphate were added a test compound dissolved in DMSO, each receptor membrane sample diluted with buffer, and [^35S] Guanosine 5′-O-[gamma-thio]triphosphate (GTPγS). The mixture was incubated at room temperature for 60 minutes. Then, the mixture was added quickly on a glassfiber filter plate (Multiscreen FB, Millipore, Inc.), and vacuum-filtered. Radioactivity remaining on the […] was measured with a liquid scintillation counter. Agonist activity was calculated from the following formula.

hERG channel, sequence (Q12809 whole entry): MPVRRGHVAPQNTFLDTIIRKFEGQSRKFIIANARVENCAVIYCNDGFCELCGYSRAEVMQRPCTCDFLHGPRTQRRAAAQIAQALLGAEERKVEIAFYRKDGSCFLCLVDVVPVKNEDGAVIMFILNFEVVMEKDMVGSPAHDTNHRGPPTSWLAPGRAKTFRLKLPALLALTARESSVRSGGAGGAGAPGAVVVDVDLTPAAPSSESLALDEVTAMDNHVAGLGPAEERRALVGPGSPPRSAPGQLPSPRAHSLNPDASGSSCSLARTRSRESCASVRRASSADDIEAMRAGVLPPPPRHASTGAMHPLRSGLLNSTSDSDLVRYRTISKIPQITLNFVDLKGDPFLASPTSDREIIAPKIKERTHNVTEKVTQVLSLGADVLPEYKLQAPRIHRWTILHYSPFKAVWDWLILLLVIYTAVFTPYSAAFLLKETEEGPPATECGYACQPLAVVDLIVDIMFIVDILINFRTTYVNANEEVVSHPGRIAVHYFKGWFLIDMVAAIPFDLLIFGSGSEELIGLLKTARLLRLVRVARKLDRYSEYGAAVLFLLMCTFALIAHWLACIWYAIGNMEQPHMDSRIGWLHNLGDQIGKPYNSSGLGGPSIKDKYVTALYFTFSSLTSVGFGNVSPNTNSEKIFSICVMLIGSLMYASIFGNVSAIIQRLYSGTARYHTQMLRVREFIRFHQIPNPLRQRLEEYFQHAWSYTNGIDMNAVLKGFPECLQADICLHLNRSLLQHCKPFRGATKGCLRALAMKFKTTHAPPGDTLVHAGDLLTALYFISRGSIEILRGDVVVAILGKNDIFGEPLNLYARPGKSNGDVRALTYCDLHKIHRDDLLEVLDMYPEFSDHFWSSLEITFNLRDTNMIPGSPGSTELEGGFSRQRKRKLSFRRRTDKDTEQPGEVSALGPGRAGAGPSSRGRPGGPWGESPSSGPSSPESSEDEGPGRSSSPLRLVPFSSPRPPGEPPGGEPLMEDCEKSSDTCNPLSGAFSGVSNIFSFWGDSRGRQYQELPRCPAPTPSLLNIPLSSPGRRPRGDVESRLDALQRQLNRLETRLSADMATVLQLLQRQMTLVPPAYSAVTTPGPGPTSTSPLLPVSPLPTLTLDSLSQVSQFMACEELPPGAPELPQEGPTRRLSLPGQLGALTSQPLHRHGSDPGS
T1 sequence (P08908 whole entry): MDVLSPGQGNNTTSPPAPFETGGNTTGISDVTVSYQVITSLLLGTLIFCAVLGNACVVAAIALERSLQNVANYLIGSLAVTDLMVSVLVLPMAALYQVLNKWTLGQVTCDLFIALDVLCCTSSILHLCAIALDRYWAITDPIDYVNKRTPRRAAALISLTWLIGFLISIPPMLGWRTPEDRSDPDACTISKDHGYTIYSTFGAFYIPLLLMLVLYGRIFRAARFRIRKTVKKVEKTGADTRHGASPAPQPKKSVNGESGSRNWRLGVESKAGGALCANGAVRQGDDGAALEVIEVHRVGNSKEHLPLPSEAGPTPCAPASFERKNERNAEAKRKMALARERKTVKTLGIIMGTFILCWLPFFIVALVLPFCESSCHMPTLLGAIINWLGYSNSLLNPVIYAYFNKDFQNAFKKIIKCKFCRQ
human D2 receptor, sequence (P14416 whole entry): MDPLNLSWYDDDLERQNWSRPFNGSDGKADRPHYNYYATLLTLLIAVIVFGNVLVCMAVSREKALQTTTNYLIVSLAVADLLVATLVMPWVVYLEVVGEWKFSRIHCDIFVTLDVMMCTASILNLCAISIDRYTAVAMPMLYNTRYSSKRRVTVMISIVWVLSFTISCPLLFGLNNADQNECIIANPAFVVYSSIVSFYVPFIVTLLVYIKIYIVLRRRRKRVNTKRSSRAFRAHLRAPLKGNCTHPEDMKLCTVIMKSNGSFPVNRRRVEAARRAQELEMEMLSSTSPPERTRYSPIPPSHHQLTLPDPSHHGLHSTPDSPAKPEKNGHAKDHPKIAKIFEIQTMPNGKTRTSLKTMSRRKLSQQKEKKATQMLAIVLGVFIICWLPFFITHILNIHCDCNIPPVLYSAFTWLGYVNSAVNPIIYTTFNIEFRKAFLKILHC

Row | SMILES | Metabolic stability in human hepatic microsome [2] [mL/min/mg protein] | pKi [3] | pKi [4] | pEC50 [5] | Emax at 10 µM [5] [%] | pIC50 [1]
1 | O=C1c2cncnc2CCN1CCN1CCN(c2nsc3ccccc23)CC1 [Example 58] | 0.092 | 6.11 | 8.16 | 7.38 | 51 | 5.22
2 | Cn1ccc2c1CCN(CCN1CCN(c3nsc4ccccc34)CC1)C2=O [Example 61] | 0.056 | 6.87 | 8.77 | 8.01 | 63 | < 5.00
3 | O=C1c2cnc(Br)cc2CCN1CCN1CCN(c2nsc3ccccc23)CC1 [Example 62] | 0.505 | 6.65 | 10.00 | 9.00 | 62 | 5.82
4 | Cn1ncc2c1CCN(CCN1CCN(c3nsc4ccccc34)CC1)C2=O [Example 63] | <0.01 | 6.10 | 8.19 | 7.80 | 73 | 5.11
5 | CCn1ncc2c1CCN(CCN1CCN(c3nsc4ccccc34)CC1)C2=O [Example 64] | 0.064 | 6.37 | 7.76 | 6.72 | 69 | 5.11
6 | Cc1c2c(nn1C)CCN(CCN1CCN(c3nsc4ccccc34)CC1)C2=O [Example 65] | 0.126 | 6.65 | 9.05 | 8.68 | 72 | 5.36
7 | CC(C)c1nc2c(o1)C(=O)N(CCN1CCN(c3nsc4ccccc34)CC1)CC2 [Example 66] | 0.357 | 6.08 | 8.06 | 7.11 | 67 | 5.68
8 | O=C1c2cn(C3CC3)nc2CCN1CCN1CCN(c2nsc3ccccc23)CC1 [Example 75] | 0.174 | 6.68 | 8.62 | 8.15 | 56 | 5.92
9 | O=C1c2cn(C3CC3)nc2CCN1CCN1CCC(c2noc3ccccc23)CC1 [Example 76] | 0.018 | 6.33 | 8.19 | 8.38 | 35 | > 6.57
10 | CC1CN(CCN2CCN(c3nsc4ccccc34)CC2)C(=O)c2cnn(C)c21 (centres unmarked) [Example 77] | 0.119 | 6.22 | 9.62 | 8.89 | 78 | 5.34

Now from value to compound, other results behind:

Row | Metabolic stability in human hepatic microsome [2] [mL/min/mg protein] | pKi [3] | pKi [4] | pEC50 [5] | Emax at 10 µM [5] [%] | SMILES | pIC50 [1]
11 | 0.459 | 6.46 | 9.34 | 9.11 | 66 | Cn1nc2c(c1C(F)(F)F)C(=O)N(CCN1CCN(c3nsc4ccccc34)CC1)CC2 [Example 78] | 5.26
12 | 0.409 | 6.62 | 9.72 | 8.21 | 63 | CC1CN(CCN2CCN(c3nsc4ccccc34)CC2)C(=O)c2ccn(C)c21 (centres unmarked) [Example 79] | 5.35
13 | 0.046 | 5.97 | 7.00 | 7.39 | 35 | Cc1nccc2c1C(=O)N(CCN1CCN(c3noc4ccccc34)CC1)CC2 [Example 85] | < 5.00
14 | 0.458 | 7.03 | 9.92 |  | 76 | Cc1nccc2c1C(=O)N(CCN1CCC(c3noc4ccccc34)CC1)CC2 [Example 87] | 6.30
15 | 0.050 | 5.65 | 8.46 | 7.27 | 39 | Cc1ccc2onc(C3CCN(CCN4CCc5cccnc5C4=O)CC3)c2c1 [Example 89] | 5.89
16 | 0.070 | 5.97 | 8.17 | 7.24 | 65 | Cc1ncc2c(n1)CCN(CCN1CCN(c3nsc4ccccc34)CC1)C2=O [Example 90] | < 5.00
17 | 0.149 | 6.08 | 8.03 | 7.82 | 41 | CCc1ncc2c(n1)CCN(CCN1CCN(c3nsc4ccccc34)CC1)C2=O [Example 93, 6-{2-[4-(1,2-Benzoisothiazol-3-yl)piperazin-1-yl]ethyl}-2-ethyl-7,8-dihydropyrido[4,3-d]pyrimidin-5(6H)-one] | 5.18
18 | 0.368 | 6.63 | 8.28 | 7.10 | 53 | O=C1c2cnc(C3CC3)nc2CCN1CCN1CCN(c2nsc3ccccc23)CC1 [Example 94] | 5.64
19 | <0.01 | 6.87 | 7.76 | 6.35 | 42 | O=C1c2cn[nH]c2CCCN1CCN1CCC(c2noc3ccccc23)CC1 [Example 97, 5-{2-[4-(1,2-Benzoisoxazol-3-yl)piperidin-1-yl]ethyl}-5,6,7,8-tetrahydropyrazolo[4,3-c]azepin-4(1H)-one] | 5.59
20 | 0.013 | 6.51 | 7.94 | 6.12 | 43 | O=C1c2[nH]ncc2CCN1CCN1CCC(c2noc3ccccc23)CC1 [Example 98, 6-{2-[4-(1,2-Benzoisoxazol-3-yl)piperidin-1-yl]ethyl}-1,4,5,6-tetrahydro-7H-pyrazolo[3,4-c]pyridin-7-one] | 5.96
21 | <0.01 | 6.55 | 7.67 | 6.73 | 40 | Cc1n[nH]c2c1C(=O)N(CCN1CCC(c3noc4ccccc34)CC1)CC2 [Example 99, 5-{2-[4-(1,2-Benzoisoxazol-3-yl)piperidin-1-yl]ethyl}-3-methyl-1,5,6,7-tetrahydro-4H-pyrazolo[4,3-c]pyridin-4-one] | 5.54
